# According to patent US5077296A, “Method for treating equine navicular disease with pentoxifylline, and composition containing pentoxifylline for administrating to horses” (priority 1987, dated 1991):
# Several values for one entry are separate records, joined by “and”; a condition that tells them apart may be missing. Equal values may be shown once.
# Columns and labels:
# [1] = system: navicular disease; settings: cited from earlier work
# [2] = cited from earlier work
# [3] = Side effects during the study
# Source text: (§1) Follow-up observations occurred weekly during the six week treatment period, and for a final time approximately 4 weeks after the 6 week treatment period was over. The follow-up visits consisted of a lameness evaluation on the lunge line, at the walk and at rest. Owners/trainers were asked to report any side effects observed that may or may not have been related to Pentoxifylline therapy, and any other problems that had arisen during the week, concurrent medications administered for other causes, and the horse's progress while being exercised. Blood samples were drawn prior to first treatment, at 3 weeks, and at 6 weeks for routine hematological and clinical chemistry profiles. Samples were drawn prior to lameness examination after the horse had been resting quietly in the stall. Most samples were drawn early in the afternoon, and were immediately submitted to Metro Animal Laboratories, Bloor Street, Toronto.
# [4] = system: navicular disease; assay: Long term efficacy: follow up evaluation of soundness after termination of the 6 week treatment; assay type: in vivo, horse
# Source text: Ten horses received a further follow up evaluation after termination of the 6 week treatment period. The horses are listed below, along with the date of visit (weeks post-initiation of study) and the soundness evaluation.
# [5] = system: navicular disease; assay: Efficacy of oral pentoxifylline in the treatment of navicular disease in horses (6 week lameness study); assay type: in vivo, horse
# Source text: As previously mentioned, it is preferred to administer daily doses of pentoxifylline for a prescribed period of time in order to alleviate lameness caused by navicular disease. […] It is preferred to administer the daily doses tid. In this regard, powder, tablet or capsule formulations, containing between 2-10 gm of pentoxifylline should be administered for this purpose. As previously indicated, the amount of daily doses is dependent on a variety of factors, including the size of the horse being treated.
# The purpose of the following study was to assess the efficacy of pentoxifylline in the treatment of navicular disease in horses; to establish an appropriate dosage and treatment interval, and to identify adverse effects from treatment.
# Twenty-seven horses entered the study between September 1985 and March 1986.
# Pentoxifylline was supplied as an oral powder prepared in individual plastic vials of 2 gm Pentoxifylline mixed with 4 gm icing sugar, to ensure palatability.
# Diagnosis of navicular disease was made using the following criteria:
# 1) history - including clinical and previous treatment history.
# lameness observed at walk and while lunging to the left and to the right.
# 3) diagnostic posterior digital nerve block
# horses not sound following bilateral desensitization of the posterior digital nerves were not admitted into the study
# 4) radiographic examination of confirmation of disease as noted by classical navicular lesions, on a minimum of three views
# Treatment was administered daily for 42 days.
# Horses were characterized as either severely lame, moderately lame, or slightly lame, as follows:
# Treatment response was classified as excellent, good, fair, or poor.
# Soundness was subjectively rated by the veterinarian on a percent basis. Percent soundness at the study's onset was subtracted from percent soundness at the study's conclusion, and this difference was plotted as a histogram (graph 2), to show the magnitude of improvement with the 6 week course of treatment. At week 4 there was an average of 57% improvement. For instance, horse number 3 was rated as 25% sound at the onset of the study, and 100% sound after six weeks, yielding an improvement of 75%.
# [6] = in vivo
# Source text: as §1
# [7] = system: navicular disease; assay: Conventional navicular disease treatments (background discussion); assay type: in vivo; settings: horse #18 (Molson), intermittent lameness over previous 5 months
# Source text: To illustrate the advantages of pentoxifylline over existing navicular disease treatments, the following conventional treatments will be discussed herein.
# [8] = duration of lameness 2 years-5 years (5)
# [9] = duration of lameness 5 years (4)
# [10] = duration of lameness 6 months (7)
# [11] = duration of lameness <6 months, >2 years (11)
# [12] = lameness at onset moderate (11)
smiles,measurement,setting,value
CC(=O)CC(c1ccccc1)c1c(O)c2ccccc2oc1=O (racemic) [Warfarin],safety disadvantage,[1]; accidental lacerations or injuries,can be fatal due to hemmorrhage
CC(COc1ccccc1)NC(C)C(O)c1ccc(O)cc1 (stereo not shown) [Isoxsuorine],efficacy,"[1]; generic, unpredictable results",Approximately 50%
"CC(=O)CCCCn1c(=O)c2c(ncn2C)n(C)c1=O [pentoxifylline, 1-(5-oxohexyl)-3,7-dimethylxanthine]",Sweating in humans,[2]; human side effect,occasional human side effect
same,lag period to maximum response in man,[2]; lag in horses said to be similar,two week period
same,Sweating episodes,"[3]; horse 14 Cash in McCue, after 2 weeks",5 episodes
same,"Stocked up, number of horses","[3]; horse 15 Cheska, RF at week 6",1 horses
same,"Colic, number of horses","[3]; horse 23 Greek Anthem, between weeks 2 and 3, previous history of colic",1 horses
same,"Sweating, number of horses",[3]; horses 14 and 20,2 horses
same,"Colic, relation to drug",[3]; in vivo,unrelated
same,"Stocked up, relation to drug",[3]; in vivo,unrelated
same,harmful side effects,[3]; in vivo,have not been identified
same,horses with unusual occurrences,[3]; in vivo,Four horses
same,instances judged drug-related side effect,[3]; throughout the study,1
same,horses judged to be sore again after cessation of treatment,"[4]; 2 weeks after cessation, Innovator, Capital Gains, Ensign",Three horses
same,follow up soundness,"[4]; horse 1 Jake, 9 weeks post-initiation",80 % sound
same,follow up soundness,"[4]; horse 1 Jake, 11 weeks, being ridden",still sound
same,follow up soundness,"[4]; horse 1 Jake, 20 weeks, being ridden",100 % sound
same,Status,"[4]; horse 1 Jake, greater than 6 weeks",Improved
same,Status,"[4]; horse 2 Lucky Lion, 2 gm once per day maintenance at 10 weeks",Improved
same,Status,[4]; horse 3 Remeny,Improved
same,follow up soundness,"[4]; horse 3 Remeny, 12 weeks",hunting sound
same,follow up soundness,"[4]; horse 3 Remeny, 18 weeks",very sound
same,Status,[4]; horse 4 Ensign,Same
same,follow up soundness,"[4]; horse 4 Ensign, 8 weeks",sore RF
same,follow up soundness,"[4]; horse 4 Ensign, 11 weeks, when given 2 gm/day",sound again
same,Status,[4]; horse 5 Wessex,Improved
same,follow up soundness,"[4]; horse 5 Wessex, 15 weeks, compared with end of the 6 weeks",sounder than
same,Status,[4]; horse 11 Capital Gains,Improved
same,follow up soundness,"[4]; horse 11 Capital Gains, 8 weeks, without drug",less sound
same,Status,[4]; horse 13 Peaches 'N Cream,Same
same,follow up soundness,"[4]; horse 13 Peaches 'N Cream, 11 weeks, compared with when entered study",as sound
same,Status,[4]; horse 14 Cash in McCue,Improved
same,follow up soundness,"[4]; horse 14 Cash in McCue, 12 weeks",100 % sound
same,Status,[4]; horse 16 B. E. Skipper,Improved
same,follow up soundness in field,"[4]; horse 16 B. E. Skipper, 11 weeks, looks sound in field",100 % sound
same,follow up soundness,"[4]; horse 16 B. E. Skipper, 11 weeks, riding again",90 % sounder
same,Status,[4]; horse 20 Innovator,Worse
same,follow up soundness to LT,"[4]; horse 20 Innovator, 7 weeks",80 % sounder
same,follow up soundness to RT,"[4]; horse 20 Innovator, 7 weeks",90 % sounder
same,follow up lameness,"[4]; horse 20 Innovator, 9 weeks, compared with before treatment",as lame at 9 weeks as he had been prior to treatment
same,horses considered sounder than at the end of the 6 week treatment period,[4]; of 10 horses followed up,Seven of these 10 horses
same,pattern when drug administration ceased,[4]; other horses,regressed rapidly when treatment ended
same,pattern when drug administration ceased,[4]; some cases,maintained the improvement noted at 6 weeks
same,response over time,[5]; 1 week,evident at 1 week
same,response over time,[5]; 2 and 3 weeks,marked at 2 and 3 weeks
same,response at dose,[5]; 2 gm bid,not considered consistently optimal
same,response at dose,[5]; 6 gram dosage divided tid,achieved the best results
same,response over time,[5]; between 4 and 6 weeks,did not regress between 4 and 6 weeks
same,"excellent responses, % of horses","[5]; cases of greater than 5 years duration, 4 horses",50%
same,"excellent responses, number of horses","[5]; cases of greater than 5 years duration, out of 4 horses",2 horses
same,effect on navicular lameness,[5]; daily doses between 6 gm and 30 gm for 4-6 weeks,effective in completely eliminating navicular lameness
same,"Response excellent, number of horses",[5]; [8],2 horses
same,"Response good, number of horses",[5]; [8],1 horses
same,"Response poor, number of horses",[5]; [8],1 horses
same,"Response excellent, number of horses",[5]; [9],2 horses
same,"Response fair, number of horses",[5]; [9],1 horses
same,"Response good, number of horses",[5]; [9],1 horses
same,"Response excellent, number of horses",[5]; [10],4 horses
same,"Response good, number of horses",[5]; [10],1 horses
same,"Response poor, number of horses",[5]; [10],1 horses
same,"Response excellent, number of horses",[5]; [11],7 horses
same,"Response fair, number of horses",[5]; [11],1 horses
same,"Response good, number of horses",[5]; [11],2 horses
same,"Response poor, number of horses",[5]; [11],1 horses
same,"excellent responses, % of horses","[5]; duration of lameness up to two years, 18 horses",61%
same,"excellent responses, number of horses","[5]; duration of lameness up to two years, out of 18 horses",11 horses
same,treatment response,"[5]; horse #9 (It's Casual), six week course, previous bilateral neurectomy",never showed significant improvement
same,treatment assessment,[5]; horse #15 (Cheska),refractory to pentoxifylline treatment
same,evaluated sounder,"[5]; horse #15 (Cheska), end of 4 weeks, dosage increased to 2 gm tid",90%
same,treatment response,"[5]; horse #15 (Cheska), first 3 weeks, 2 gm bid, drug not administered properly",virtually no response
same,lameness,"[5]; horse #15 (Cheska), weeks 5 and 6, after jumping in 4th week",as lame as at the beginning
same,treatment assessment,"[5]; horse #18 (Molson), irregular treatment",refractory to treatment
same,treatment response,"[5]; horse #18 (Molson), week 3 and week 5",marked improvement
same,lameness,"[5]; horse #18 (Molson), week 6, inconsistent drug administration",as lame as at the onset of the study
same,percent soundness after six weeks,"[5]; horse number 3, 25% sound at onset",100%
same,improvement in percent soundness,"[5]; horse number 3, six weeks vs onset",75%
same,response by lameness at onset,[5]; horses with moderate lameness,preponderance of excellent responses
same,"Response excellent, number of horses",[5]; [12],7 horses
same,"Response fair, number of horses",[5]; [12],2 horses
same,"Response good, number of horses",[5]; [12],1 horses
same,"Response good, number of horses",[5]; lameness at onset severe (8),1 horses
same,"Response poor, number of horses",[5]; lameness at onset severe (8),3 horses
same,"Response good, number of horses",[5]; lameness at onset slight (2),2 horses
same,"Response excellent, number of horses",[5]; lameness at onset slight-moderate (6),6 horses
same,"Response fair, number of horses","[5]; n = 25, oral, 42 days",2 horses
same,"Response good, number of horses","[5]; n = 25, oral, 42 days",5 horses
same,"Response poor, number of horses","[5]; n = 25, oral, 42 days",3 horses
same,"Response excellent, number of horses","[5]; n = 25, oral, 42 days, 2 gm bid or tid",15 horses
same,"Response excellent, % of horses","[5]; oral, 4 to 6 week treatment",63%
same,"Response fair, % of horses","[5]; oral, 4 to 6 week treatment",8%
same,"Response good, % of horses","[5]; oral, 4 to 6 week treatment",20% and 17%
same,"Response poor, % of horses","[5]; oral, 42 days",13%
same,time of maximal response,"[5]; response over time, graph 1",4 weeks
same,effect on lameness of navicular disease,[5]; varying severity and duration,effective in alleviating the lameness
same,average improvement in percent soundness,"[5]; week 4, subjective rating by veterinarian, difference from onset",57%
same,Baso mean,[6],0.5%
same,Cl mean,[6],98.9 mmol/L
same,Clinical chemistry values vs equine reference range,[6],within the reference range for the equine species
same,Hematology values vs normal limits,[6],within normal limits throughout the study
same,Mean clinical chemistry values vs baseline,[6],did not differ significantly
same,Number of horses with platelets increased since baseline,[6],20 horses
same,Platelets increase,[6],"4,520"
same,clinical effect on blood chemistry,[6],no clinical effect
same,horses with lower platelet count at week 6 than at week 3,[6],13 horses
CCCCC1C(=O)N(c2ccccc2)N(c2ccccc2)C1=O [phenylbutazone],response to previous treatment,[7],responded
same,side effects,[1]; in vivo,risk of gastric and cecal ulcers and kidney damage
